This assay in a line: Inhibitory activity against PRPP synthetase.

For one molecule, Ki results are on record in BindingDB's records for doi:10.1021/jm010216r (Academia Sinica, 2001).

For orientation: Ki means the dissociation constant of the complex between target and ligand, obtained from inhibition or displacement.

For the molecule `Nc1ncnc2ncn(CCOCP(=O)(O)O)c12` [[2-(6-Amino-purin-7-yl)-ethoxymethyl]-phosphonic acid], the affinity, expressed as Ki, was 17 mM.
